Test results: US8138205B2, “Heteroarylalkoxy-substituted quinolone inhibitors of PDE4” (Kalypsys, Inc., priority 2006, dated 2012)
One block for each compound: values may come before it.

Legend:
Solubility Protocol = format: physicochemical; details: aqueous buffer, thermodynamic from solid; pH 7.4, 0.1 M sodium phosphate buffer
Description: About 5 mg of a compound was mixed with 500 μL of pH 7.4, 0.1 M sodium phosphate buffer. The mixture was adjusted to the original pH of 7.4 and then mixed overnight or longer via rotary mixing. The sample was checked for pH and then filtered through a 0.45 μm filter. If the pH drifted away, the sample was adjusted to its original pH and mixed for at least 15 minutes before filtration. The filtrate was analyzed using HPLC.

PDE4B = target: T1, PDE4B (Homo sapiens, UniProt Q07343); assay: PDE/AK Biological Activity Assay (coupled PDE/adenylate kinase bioluminescent assay); format: biochemical; details: catalytic domain of PDE4B, read-out: PDE4 Enzyme IC50
T1 construct: hex-histidine (His6) (N); made in house
Source text: Phosphodiesterases regulate the activity of the second messenger cyclic adenosine monophosphate (cAMP) by hydrolyzing cAMP to adenosine monophosphate (AMP). We developed a coupled PDE/AK bioluminescent high-throughput assay to measure the activity of phosphodiesterases. In the PDE/AK assay, the AMP produced from the hydrolysis of cAMP by phosphodiesterase is converted to adenosine diphosphate (ADP) by the phosphotransferase activity of adenylate kinase (also known as ADK or myokinase). Adenylate kinase will catalyze the conversion of 1 mole of AMP and 1 mole of ATP into 2 moles of ADP. Thus the conversion of AMP to ADP will result in the subsequent loss of ATP. The decrease in ATP concentration can be monitored as light output using luciferase in a reaction that requires ATP to produce light. The PDE/AK assay uses luciferase, which catalyzes the production of light from ATP present in the reaction mix. The amount of emitted light is inversely proportional to the level of AMP present in the reaction. Test compounds are incubated with the phosphodiesterases and phosphodiesterase inhibitors will decrease the rate of cAMP hydrolysis and decrease the subsequent production of AMP. Thus phosphodiesterase inhibitors will decrease the conversion of ATP to ADP and result in the greatest emission of light.
Compounds may be screened for functional potency in in vitro biochemical assays for their ability to inhibit the activity of phosphodiesterase (PDE) enzymes. A coupled PDE/AK assay was utilized to measure the inhibitory activity of compounds on PDE isoforms. The catalytic domain of PDE4B was fused to an amino-terminus hex-histidine affinity tag and purified. PDE4B enzyme was incubated with compounds for 10 minutes. Cyclic AMP substrate, ATP and adenylate kinase were then added to the PDE enzyme mix and incubated for 45 minutes at room temperature. A commercial ATP detection assay, Perkin Elmer's easyLite ATP detection reagent, was then added to measure the relative amount of ATP present in the reaction. After 10 minute incubation, the luminescent signal was quantitated with either the Perkin Elmer Viewlux or Molecular Devices Acquest or Analyst. Roflumilast and Rolipram are the positive controls used in the assay.

T1 sequence (Q07343 330-659 limits assumed, species assumed): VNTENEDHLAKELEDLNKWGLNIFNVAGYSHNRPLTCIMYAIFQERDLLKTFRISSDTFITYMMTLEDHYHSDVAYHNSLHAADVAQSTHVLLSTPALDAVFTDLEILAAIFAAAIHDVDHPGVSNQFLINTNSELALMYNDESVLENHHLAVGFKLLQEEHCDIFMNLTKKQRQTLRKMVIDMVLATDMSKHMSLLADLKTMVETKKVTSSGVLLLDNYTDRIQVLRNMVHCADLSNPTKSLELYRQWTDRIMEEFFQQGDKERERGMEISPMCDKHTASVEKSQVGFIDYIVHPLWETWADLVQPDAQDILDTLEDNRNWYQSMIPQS

SMILES: COc1ccc2c(Nc3c(C)cncc3C)cc(=O)[nH]c2c1OCC(C)C [Example 12, 4-(3,5-Dimethylpyridin-4-ylamino)-8-isobutoxy-7-methoxyquinolin-2(1H)-one]
solubility (Solubility Protocol): ≥ 1000 µg/mL

SMILES: CCN1CCN(CCCCCCOc2c(OC)ccc3c(Nc4c(Cl)cncc4Cl)cc(=O)[nH]c23)CC1 [Example 23, 4-(3,5-dichloropyridin-4-ylamino)-8-(6-(4-ethylpiperazin-1-yl)hexyloxy)-7-methoxyquinolin-2(1H)-one]
IC50 (PDE4B): < 1000 nM

SMILES: COc1ccc2c(Nc3c(Cl)cncc3Cl)cc(=O)[nH]c2c1OCCCCCCN1CCCNCC1 [Example 25, 8-(6-(1,4-Diazepan-1-yl)hexyloxy)-4-(3,5-dichloropyridin-4-ylamino)-7-methoxyquinolin-2(1H)-one]
solubility (Solubility Protocol): ≥ 1000 µg/mL
IC50 (PDE4B): < 1000 nM

SMILES: COc1ccc2c(Nc3c(Cl)cncc3Cl)cc(=O)[nH]c2c1OCCCCCCN1CCCN(C)CC1 [Example 26, 4-(3,5-Dichloropyridin-4-ylamino)-7-methoxy-8-(6-(4-methyl-1,4-diazepan-1-yl)hexyloxy)quinolin-2(1H)-one]
solubility (Solubility Protocol): ≥ 1000 µg/mL
IC50 (PDE4B): < 1000 nM

SMILES: COc1ccc2c(Nc3c(C)cncc3C)cc(=O)[nH]c2c1OCCCCCCN1CCN(C)CC1 [Example 34, 4-(3,5-Dimethylpyridin-4-ylamino)-7-methoxy-8-(6-(4-methylpiperazin-1-yl)hexyloxy)quinolin-2(1H)-one]
IC50 (PDE4B): < 1000 nM

SMILES: COc1ccc2c(Nc3c(C)cncc3C)cc(=O)[nH]c2c1OCCCCCCN1CCCCC1 [Example 36, 4-(3,5-Dimethylpyridin-4-ylamino)-7-methoxy-8-(6-(piperidin-1-yl)hexyloxy)quinolin-2(1H)-one]
solubility (Solubility Protocol): ≥ 1000 µg/mL
IC50 (PDE4B): < 1000 nM

SMILES: COc1ccc2c(Nc3c(C)cncc3C)cc(=O)[nH]c2c1OCCCCCCN1CCCC1 [Example 37, 4-(3,5-Dimethylpyridin-4-ylamino)-7-methoxy-8-(6-(pyrrolidin-1-yl)hexyloxy)quinolin-2(1H)-one]
solubility (Solubility Protocol): ≥ 1000 µg/mL
IC50 (PDE4B): < 1000 nM

SMILES: COc1ccc2c(Nc3c(C)cncc3C)cc(=O)[nH]c2c1OCCCCN(C)C [Example 44, 8-(4-(dimethylamino)butoxy)-4-(3,5-dimethylpyridin-4-ylamino)-7-methoxyquinolin-2(1H)-one]
IC50 (PDE4B): < 1000 nM

SMILES: COc1ccc2c(Nc3c(C)cncc3C)cc(=O)[nH]c2c1OCCCO [Example 81, 4-(3,5-dimethylpyridin-4-ylamino)-8-(3-hydroxypropoxy)-7-methoxyquinolin-2(1H)-one]
IC50 (PDE4B): < 1000 nM

SMILES: COc1ccc2c(Nc3c(C)cncc3C)cc(=O)[nH]c2c1OCCCCO [Example 82, 4-(3,5-dimethylpyridin-4-ylamino)-8-(4-hydroxybutoxy)-7-methoxyquinolin-2(1H)-one]
IC50 (PDE4B): < 1000 nM

SMILES: COc1ccc2c(Nc3c(C)cncc3C)cc(=O)[nH]c2c1OCCCCCO [Example 83, 4-(3,5-dimethylpyridin-4-ylamino)-8-(5-hydroxypentyloxy)-7-methoxyquinolin-2(1H)-one]
IC50 (PDE4B): < 1000 nM

SMILES: COc1ccc2c(Nc3c(C)cncc3C)cc(=O)[nH]c2c1OCCCCCCO [Example 84, 4-(3,5-dimethylpyridin-4-ylamino)-8-(6-hydroxyhexyloxy)-7-methoxyquinolin-2(1H)-one]
IC50 (PDE4B): < 1000 nM

SMILES: COc1ccc2c(Nc3c(C)cncc3C)cc(=O)[nH]c2c1OCCCc1nn[nH]n1 [Example 85, 8-(3-(2H-tetrazol-5-yl)propoxy)-4-(3,5-dimethylpyridin-4-ylamino)-7-methoxyquinolin-2(1H)-one]
IC50 (PDE4B): < 1000 nM

SMILES: COc1ccc2c(Nc3c(C)cncc3C)cc(=O)[nH]c2c1OCCCCc1nn[nH]n1 [Example 86, 8-(4-(2H-tetrazol-5-yl)butoxy)-4-(3,5-dimethylpyridin-4-ylamino)-7-methoxyquinolin-2(1H)-one]
IC50 (PDE4B): < 1000 nM

SMILES: COc1ccc2c(Nc3c(C)cncc3C)cc(=O)[nH]c2c1OCCCCCc1nn[nH]n1 [Example 87, 8-(5-(2H-tetrazol-5-yl)pentyloxy)-4-(3,5-dimethylpyridin-4-ylamino)-7-methoxyquinolin-2(1H)-one]
IC50 (PDE4B): < 1000 nM

SMILES: COc1ccc2c(Nc3c(C)cncc3C)cc(=O)[nH]c2c1OCCCCCCc1nn[nH]n1 [Example 88, 8-(6-(2H-tetrazol-5-yl)hexyloxy)-4-(3,5-dimethylpyridin-4-ylamino)-7-methoxyquinolin-2(1H)-one]
IC50 (PDE4B): < 1000 nM

SMILES: COc1ccc2c(Nc3c(Cl)cncc3Cl)cc(=O)[nH]c2c1OCCCCC(=O)NCC(=O)O [Example 94, 2-(5-(4-(3,5-dichloropyridin-4-ylamino)-7-methoxy-2-oxo-1,2-dihydroquinolin-8-yloxy)pentanamido)acetic acid]
IC50 (PDE4B): < 1000 nM

SMILES: COc1ccc2c(Nc3c(Cl)cncc3Cl)cc(=O)[nH]c2c1OCCCCC(=O)N[C@@H](Cc1c[nH]cn1)C(=O)O [Example 95, (S)-2-(5-(4-(3,5-dichloropyridin-4-ylamino)-7-methoxy-2-oxo-1,2-dihydroquinolin-8-yloxy)pentanamido)-3-(1H-imidazol-4-yl)propanoic acid]
IC50 (PDE4B): < 1000 nM

SMILES: COc1ccc2c(Nc3c(Cl)cncc3Cl)cc(=O)[nH]c2c1OCCCOCCOCCOCCO [Example 96, 4-(3,5-dichloropyridin-4-ylamino)-8-(3-(2-(2-(2-hydroxyethoxy)ethoxy)ethoxy)propoxy)-7-methoxyquinolin-2(1H)-one]
IC50 (PDE4B): < 1000 nM

SMILES: COCCOCCOCCOCCCOc1c(OC)ccc2c(Nc3c(Cl)cncc3Cl)cc(=O)[nH]c12 [Example 97, 8-(2,5,8,11-tetraoxatetradecan-14-yloxy)-4-(3,5-dichloropyridin-4-ylamino)-7-methoxyquinolin-2(1H)-one]
IC50 (PDE4B): < 1000 nM

Continued, values first:

IC50 (PDE4B): < 1000 nM
SMILES: COc1ccc2c(Nc3c(Cl)cncc3Cl)cc(=O)[nH]c2c1OCCCCCCN(C)CCN(C)C [Example 24, 4-(3,5-dichloropyridin-4-ylamino)-8-(6-((2-(dimethylamino)ethyl)(methyl)amino)hexyloxy)-7-methoxyquinolin-2(1H)-one]

solubility (Solubility Protocol): ≥ 1000 µg/mL
IC50 (PDE4B): < 1000 nM
SMILES: COc1ccc2c(Nc3c(Cl)cncc3Cl)cc(=O)[nH]c2c1OCCCCCCN(C)CCCN(C)C [Example 27, 4-(3,5-Dichloropyridin-4-ylamino)-8-(6-((3-(dimethylamino)propyl)(methyl)amino)hexyloxy)-7-methoxyquinolin-2(1H)-one]

solubility (Solubility Protocol): ≥ 1000 µg/mL
IC50 (PDE4B): < 1000 nM
SMILES: COc1ccc2c(Nc3c(Cl)cncc3Cl)cc(=O)[nH]c2c1OCCCCCCN [Example 28, 8-(6-Aminohexyloxy)-4-(3,5-dichloropyridin-4-ylamino)-7-methoxyquinolin-2(1H)-one]

solubility (Solubility Protocol): ≥ 1000 µg/mL
IC50 (PDE4B): < 1000 nM
SMILES: COc1ccc2c(Nc3c(Cl)cncc3Cl)cc(=O)[nH]c2c1OCCCCCCNCCO [Example 29, 4-(3,5-Dichloropyridin-4-ylamino)-8-(6-(2-hydroxyethylamino)hexyloxy)-7-methoxyquinolin-2(1H)-one]

solubility (Solubility Protocol): ≥ 1000 µg/mL
IC50 (PDE4B): < 1000 nM
SMILES: COc1ccc2c(Nc3c(Cl)cncc3Cl)cc(=O)[nH]c2c1OCCCCCCN(C)CCO [Example 30, 4-(3,5-Dichloropyridin-4-ylamino)-8-(6-((2-hydroxyethyl)(methyl)amino)hexyloxy)-7-methoxyquinolin-2(1H)-one]

IC50 (PDE4B): < 1000 nM
SMILES: COc1ccc2c(Nc3c(Cl)cncc3Cl)cc(=O)[nH]c2c1OCCCCCCN(CCO)CCO [Example 31, 8-(6-(Bis(2-hydroxyethyl)amino)hexyloxy)-4-(3,5-dichloropyridin-4-ylamino)-7-methoxyquinolin-2(1H)-one]

solubility (Solubility Protocol): ≥ 1000 µg/mL
IC50 (PDE4B): < 1000 nM
SMILES: COc1ccc2c(Nc3c(Cl)cncc3Cl)cc(=O)[nH]c2c1OCCCCCCNCCCO [Example 32, 4-(3,5-Dichloropyridin-4-ylamino)-8-(6-(3-hydroxypropylamino)hexyloxy)-7-methoxyquinolin-2(1H)-one]

solubility (Solubility Protocol): ≥ 1000 µg/mL
IC50 (PDE4B): < 1000 nM
SMILES: COc1ccc2c(Nc3c(Cl)cncc3Cl)cc(=O)[nH]c2c1OCCCCCCN(C)CCCO [Example 33, 4-(3,5-Dichloropyridin-4-ylamino)-8-(6-((3-hydroxypropyl)(methyl)amino)hexyloxy)-7-methoxyquinolin-2(1H)-one]

IC50 (PDE4B): < 1000 nM
SMILES: COc1ccc2c(Nc3c(Cl)cncc3Cl)cc(=O)[nH]c2c1OCCCCCCNC(=N)N [Example 63, 1-(6-(4-(3,5-dichloropyridin-4-ylamino)-7-methoxy-2-oxo-1,2-dihydroquinolin-8-yloxy)hexyl)guanidine]

IC50 (PDE4B): < 1000 nM
SMILES: COc1ccc2c(Nc3c(Cl)cncc3Cl)cc(=O)[nH]c2c1OCCCOCCOCCO [Example 98, 4-(3,5-dichloropyridin-4-ylamino)-8-(3-(2-(2-hydroxyethoxy)ethoxy)propoxy)-7-methoxyquinolin-2(1H)-one]
